{"source": "patent US20250099485A1", "about": "“COMPOSITIONS FOR PROMOTING HAIR GROWTH” (ESTETRA SRL, priority 2021, published 2025)", "assay_type_in_all_cases": "cell-based", "key": {"[1]": {"test_system": "primary human epidermal keratinocytes", "test": "Keratinocyte scratch assay", "conditions": "10^−10M and 10^−7M, culture condition with 15% HKGS, compared with E2", "protocol": "Human skin was transferred to the laboratory in holding media (DMEM containing 4% penicillin-streptomycin and Amphotericin B solution) within 30 minutes of collection. Once defatted, the skin was rinsed in HBSS with 4% PSA followed by DPBS without antibiotics, then cut into thin strips and floated on 0.2% Dispase II in DPBS overnight at 4° C., followed by manual separation of the epidermis from the dermis. Primary human epidermal keratinocytes and primary human dermal fibroblasts were then isolated.\nConfluent wells of both primary keratinocytes and fibroblasts were subjected to a highly validated scratch wounding procedure (using a 1 mL sterile filter tip). Post-scratching, cells were rinsed with DPBS and cell-specific media containing treatments added to each well. Cells were imaged on a ptychographic live cell imaging platform (Livecyte 2TM, Phasefocus) for 24-48 hours. Automated tracking of individual unlabeled cells will be combined with 3D cell measurements to quantify a range of wound-relevant cell parameters including scratch closure rate.\nDose range finding experiments were conducted with E4 (10^−10M to 10^−6M) and E2 with and without Mitomycin C (MMC, to inhibit proliferation) using vehicle as negative controls."}, "human monocytes": {"test_system": "human monocytes", "test": "Immune cell polarization (qPCR NOS2/ARG1), human monocytes", "conditions": "activated human monocytes, qPCR marker", "protocol": "(§1) Immune cell polarization was evaluated in vitro using markers for M1/TH-1 (NOS2) and M2/TH-2 (ARG1) phenotype with human monocytes and mouse monocytes (BMDM bone marrow derived monocytes).\nHuman blood was collected under national ethical approval with full informed written patient consent. Freshly isolated human blood was collected in EDTA vacutainer tubes, diluted 1:1 in PBS and gently layered onto histopaque (Merck). Tubes were immediately centrifuged at 100×g for 30 minutes and the whitish buffy layer formed at the histopaque interface aspirated and washed (centrifuged 100×g, 10 minutes) twice with sterile PBS. Untouched classical (CD14++, CD16−) monocytes were isolated from the washed buffy layer cells using the Miltenyi Classical Monocyte Isolation Kit, LS columns and a MidiMACs separator (Miltenyi). Isolated cells were seeded into tissue culture plates and stimulated to differentiate using PMA.\n(§2) An experiment was conducted to evaluate the anti-inflammatory effects of E4 or vehicle (negative control). qPCR methodology was used to assess the effects of E2 and E4 on immune cell polarization using well validated marker of pro-inflammatory (NOS2 for MI/TH-1 phenotype) and anti-inflammatory (ARG1 for ME/TH-2 phenotype) activity."}, "[2]": {"test_system": "mouse BMDM (bone marrow derived monocytes)", "test": "Immune cell polarization (qPCR NOS2/ARG1), mouse BMDM", "conditions": "activated mouse bone marrow derived monocytes, qPCR marker", "protocol": "as §1, §2"}, "[3]": {"test_system": "human hair follicles (HF)", "test": "Hair follicle organ culture: LDH release into the medium", "conditions": "all tested concentrations (300 nM, 3 μM, 30 μM)", "protocol": "(§3) 12-44 full-length frontotemporal hair follicles (HF) were obtained from four human female donors >50 years old. Donors were caucasian female subjects […], respectively (Donor 1: 12 temporal anagen HFs; Donor 2: 29; Donor 3: 44; Donor 4: 32). After microdissection from skin as described (Edelkamp et al., Methods Mol Biol, 2020, 2154:105-119; and Langan et al., Exp Dermatol, 2015, December; 24(12):903-1), HFs were placed in adequate culture medium and allowed a 24 h rest period to allow them to recover from the trauma of microdissection. Test substance (either vehicle (0.3% EtOH) or E4 at concentrations of 30 μM, 3 μM or 300 nM) was added to the medium at the end of the 24 h. Total culturing time was 5-7 days depending on the studied parameters and the experimental question. The experimental design for the hair follicle organ culture experiment is depicted in FIG. 12. Longer term culture experiments may be used to analyze the capacity to delay the onset of catagen.\nLDH is released from the cytoplasm of damaged cells into the culture medium. Therefore, the cytotoxicity of agents can be estimated based on the activity of LDH present in the culture medium using a colorimetric assay (Cytotoxicity Detection Kit [LDH], Roche) as described (Gherardini et al Int J Cosmet Sci, 2019, April; 41(2):164-182). […]"}, "[4]": {"test_system": "human hair follicles (HF)", "test": "Hair follicle organ culture: microscopic hair cycle staging", "conditions": "vs vehicle", "protocol": "as §3\nHair cycle staging and calculation of hair cycle score is indicative of hair cycle progression and anagen-catagen transition (Langan et al., Exp Dermatol, 2015). Hair cycle staging and hair cycle score was performed at the end of the culture. The hair cycle stage of each HF was determined according to several established macroscopic and microscopic parameters (Langan et al Exp Dermatol, 2015). For macroscopic hair cycle stage, bright field images of the living HFs were taken with a digital microscope (Keyence VHX 900). Microscopic hair cycle staging was determined using Ki 67/TUNEL immunohistology and Masson Fontana histochemistry. Hair cycle staging was analyzed by calculating the percentage of HFs in each hair cycle stage. Hair cycle score was determined by giving an arbitrary score to each hair cycle stage as following: anagen: 100, early catagen: 200, mid catagen: 300, late catagen: 400, dystrophic 500, with a higher score being indicative of a higher number of HFs in catagen."}}, "data": [{"molecule": "C[C@]12CC[C@@H]3c4ccc(O)cc4CC[C@H]3[C@@H]1[C@@H](O)[C@@H](O)[C@@H]2O", "note": "[E4, 1,3,5 (10)-estratrien-3,15alpha,16alpha,17beta-tetrol]", "values": [{"measurement": "impact on keratinocyte migration, scratch assay", "setting": "[1]", "result": "seems higher than the impact of E2"}, {"measurement": "immune cell polarization, human monocytes", "setting": "human monocytes", "result": "switch from subtype M1 (pro-inflammatory) to subtype M2 (healing)"}, {"measurement": "immune cell polarization, mouse BMDM", "setting": "[2]", "result": "switch from subtype M1 (pro-inflammatory) to subtype M2 (healing)"}, {"measurement": "HF cytotoxicity (LDH release into the medium)", "setting": "[3]", "result": "did not induce HF cytotoxicity"}, {"measurement": "prolonged anagen (microscopic hair cycle staging)", "setting": "[4]; 300 nM", "result": "tendentially"}, {"measurement": "prolonged anagen (microscopic hair cycle staging)", "setting": "[4]; 3 μM", "result": "significantly"}, {"measurement": "prolonged anagen (microscopic hair cycle staging)", "setting": "[4]; 30 μM", "result": "tendentially"}]}]}
